Assay results published in patent US20060003364A1, “GLUT1 transporters expressed in cancer cells” (XenoPort, Inc., priority 2004, published 2006).

Biological target: T1, GLUT1 (Homo sapiens, UniProt P11166)
T1 sequence (P11166 1-492): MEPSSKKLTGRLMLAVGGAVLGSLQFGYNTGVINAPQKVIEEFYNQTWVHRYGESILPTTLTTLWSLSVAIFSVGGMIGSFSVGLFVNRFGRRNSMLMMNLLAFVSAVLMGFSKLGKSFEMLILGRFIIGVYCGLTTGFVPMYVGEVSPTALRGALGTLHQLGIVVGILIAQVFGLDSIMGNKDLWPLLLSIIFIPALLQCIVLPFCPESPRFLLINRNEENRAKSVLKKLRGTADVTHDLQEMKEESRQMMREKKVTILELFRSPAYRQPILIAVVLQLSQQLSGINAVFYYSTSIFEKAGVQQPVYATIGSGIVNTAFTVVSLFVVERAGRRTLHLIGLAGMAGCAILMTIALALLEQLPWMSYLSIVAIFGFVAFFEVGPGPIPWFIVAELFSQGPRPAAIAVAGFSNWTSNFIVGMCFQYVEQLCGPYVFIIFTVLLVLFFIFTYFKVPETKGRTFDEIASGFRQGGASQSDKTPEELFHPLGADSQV
Assay: not given
Conditions: cited from earlier work

Fluorodeoxyglucose and O=C[C@H](O)[C@@H](O)[C@@H](O)[C@H](O)CO [Galactose] are the same in “Reported Affinity for GLUT1” value: 4 mM for the first, 4 mM for the second.

O=C1O[C@H]([C@@H](O)CO)C(=O)C1=O [Dehydroascorbic Acid] and “(S)-methoxy-a-methyl-2-napthalene acetic acid amido galacto pyranose” are within 1.5-fold of each other in “Reported Affinity for GLUT1” value: 0.8 mM for the first, 1 mM for the second.

In the case of N[C@H]1C(O)O[C@H](CO)[C@@H](O)[C@@H]1O (stereo partly drawn) [Glucosamine], the “Reported Affinity for GLUT1” value is given as 9 mM.

Biological target: T1, GLUT1
Assay: Radiolabel glucose uptake in Xenopus oocytes expressing GLUT1
Assay type: cell-based
Parameters: expressed in transfected cells; host or cells: Xenopus oocytes (cRNA injected)
Conditions: oocytes expressing GLUT1 vs noninjected controls; 3 minutes, ND96 buffer
Protocol: To assess transport function of a specific transporter protein, it can be desirable to clone the cDNA and express the protein in cells that have low endogenous transport activity. Human GLUT1 was cloned by PCR, fully sequenced, and subcloned into plasmids that can be used for expression in mammalian cells or Xenopus oocytes. […] For expression in Xenopus oocytes, in vitro GLUT1 cRNA was prepared and injected into defoliculated oocytes.
Oocytes expressing GLUT1 or control oocytes not expressing GLUT1 were incubated in an oocyte ringers (ND96) buffer ([…], 10 mM HemiNa HEPES, 2 mM KCl, 1 mM MgCl, 1.8 mM CaCl2) containing 0.5% bovine serum albumin and 3H-glucose (10^6 CPM/ml) for 3 minutes. Oocytes were washed and uptake of radiolabel quantified by scintillation counting.

For O=C[C@H](O)[C@@H](O)[C@H](O)[C@H](O)CO [^3H-glucose], the 3H-glucose uptake was “higher levels of ^3H-glucose uptake than noninjected controls”.
